The text below walks through data of PubChem BioAssay (NCI).

Values joined by “and” are separate entries in the source; they are usually repeats but may differ in a detail not shown here. Equal entries are not always repeated.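 Exposure lasted 48 hours, with cells grown in 96-well plates and compounds tested at five concentrations. Here, GI50 denotes the concentration required for 50% inhibition of growth. Definition used: TGI = concentration required for complete inhibition of growth.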 A value given as a limit tells only on which side of the number the result lay.

What all share (test): inhibition of tumour cell growth, NCI panel, 48 h
For assay [1], the system named is BT-549 breast.
Assay [2] relates to RPMI-8226 leukemia.
Assay [3] deals with HOP-92 NSCLC.
Assay [4] deals with HCC-2998 colon.
Assay [5] has as its system MDA-N.
For assay [6], the system named is MDA-MB-231 breast.
Assay [7] relates to RXF 393 renal.
Assay [8] concerns 786-0 renal.
For assay [9], the system named is SR leukemia.
Assay [10] concerns HOP-18 NSCLC.
Assay [11] relates to DLD-1 colon.

Regarding `N=C(N)C(N=Nc1ccccc1)C(=N)N` (stereo unspecified), the TGI in assay [1] is above 100 µM; in [2], above 100 µM; in [3], 83.9 µM; in assay [4], 32.9 µM; in assay [5] it was 61.2 µM; in [6], 97.8 µM. Also, the TGI in assay [7] and in assay [8] was above 100 µM each time.

Consider `O=C1c2ccccc2-c2ccc(O)cc21`, for which the TGI in [2] is above 100 µM; in assay [9], 29.7 µM; in assay [6], 44.2 µM; in assay [7] it was 32.9 µM; in [8], above 100 µM.

With `COC1(OC)C[C@H](C)[C@@]23O[C@]24c2cc(O)c5c(c2N[C@H]3C#C/C=C\C#C[C@]14O)C(=O)c1ccccc1C5=O`, the TGI in [1] was 0.125 µM; in assay [2], 0.0604 µM and 0.0392 µM; in assay [3], 0.00982 µM; in assay [4], 0.0855 µM and 0.0544 µM; in assay [5] it was 0.139 µM and 0.108 µM; in assay [7], 0.0256 µM and 0.0186 µM. Besides, the TGI in assay [8] turned out to be 0.0245 µM. Also, the GI50 in assay [2] is 0.0015 µM; in assay [4], 0.0197 µM; in [5] it was 0.00836 µM; in [6], 0.0199 µM; in [7], 0.00163 µM.

In the case of `CCC(C)C(NC(=O)C(CCCCN)NC(=O)C(NC(=O)C(CCC(N)=O)NC(=O)C(CCCNC(=N)N)NC(C)=O)C(C)CC)C(=O)NC(Cc1c[nH]c2ccccc12)C(=O)NC(Cc1ccccc1)C(=O)NC(CCC(N)=O)C(=O)NC(CC(N)=O)C(=O)NC(CCCNC(=N)N)C(=O)NC(CCCNC(=N)N)C(=O)NC(CCSC)C(=O)NC(CCCCN)C(=O)NC(Cc1c[nH]c2ccccc12)C(=O)NC(CCCCN)C(=O)NC(CCCCN)C(N)=O` (stereo unspecified), the TGI in assay [1], in assay [2], in assay [3], in assay [4], in [5] and in [9] was above 50 µM each time. For the same compound, the results for the TGI in assay [6], in [7] and in [8] were 41.3 µM, above 50 µM and 42.1 µM, respectively.

For the compound `O=C1OC(c2ccccc2)=N/C1=C/c1cccs1`, the TGI in [2] was 44.9 µM; in assay [3], above 100 µM; in [4], above 100 µM; in assay [9], above 100 µM; in assay [7], above 100 µM.

With `CC(=O)C1=C(O)C2(O)C(=O)c3c(c(C)c4ccc(C)c(O)c4c3O)CC2C(N)C1=O` (stereo unspecified), the GI50 is 0.762 µM in assay [1] and 0.73 µM in assay [6]. The TGI in assay [1] turned out to be 13.6 µM; in assay [10], 13.4 µM; in [2], 12.8 µM; in assay [3], 6.2 µM; in assay [4], 15 µM; in assay [11] it was 11.7 µM. The TGI turned out to be 4.47 µM in assay [9], 4.99 µM in assay [6], 20 µM in [7] and 16.8 µM in [8].

With `Cc1nc(Cl)c(C)c(Cl)n1`, the TGI in [1] is above 100 µM; in assay [2], above 100 µM; in assay [4], above 100 µM; in [5] it was above 100 µM; in [9], 71.8 µM; in assay [6], above 100 µM. The TGI in assay [7] and in assay [8] was above 100 µM in each case.

On to `S=C(NCCCCCCNC(=S)Nc1c2ccccc2nc2ccccc12)Nc1c2ccccc2nc2ccccc12`, for which the TGI in [10], in assay [2], in assay [3], in assay [4], in assay [11] and in assay [7] was above 100 µM throughout.

For the compound `O=C1c2scnc2-c2nccc3c2c1nc1ccccc13`, the TGI was 2.94 µM in assay [1]; above 100 µM in assay [2]; 4.85 µM in [3]; 2.48 µM in assay [4]; above 100 µM in [9]; 3.98 µM in assay [7].

On to `N#CCc1[nH]nc2nc(SCc3ccccc3)nc(N3CCCCC3)c12`, for which the TGI in assay [1] was 34.1 µM; in [2], 43.2 µM; in [3] it was 31.6 µM; in [4], 31.9 µM; in [7], 32.2 µM; in [8] it was 31.8 µM.

Regarding `C[N+]1(C)C2CCC1CC(OC(=O)C(CO)c1ccccc1)C2` (stereo unspecified), the TGI in assay [1], in assay [2], in assay [5], in assay [9], in assay [6] and in assay [7] was above 100 µM in each case. Further, the TGI in assay [8] was above 100 µM.

`OC1C=C2C3CN(Cc4cc5c(cc43)OCO5)[C@H]2C[C@@H]1O` (stereo partly specified): the TGI in assay [1] was 14.7 µM; in assay [2] it was above 100 µM; in assay [3] it was 46.9 µM; in [5], 37.3 µM; in assay [9], above 100 µM; in [6], 68.5 µM. For the same compound, the TGI in [7] amounted to 21.4 µM; in [8], 36.3 µM.

As to `Cc1c2c(cc3c1[nH]c1ccccc13)C(c1ccc(F)cc1)=NCC2`, the TGI is 14.5 µM in assay [10]; 2.54 µM in assay [2]; 7.27 µM in assay [3]; 2.8 µM in assay [4]; 6.45 µM in assay [11]; 4.32 µM in assay [7].

On to `OC(c1ccc(-c2ccccc2)cc1)(c1ccc(-c2ccccc2)cc1)c1ccc(-c2ccccc2)cc1`, for which the TGI in assay [1], in assay [2], in [5], in [9], in assay [6] and in assay [7] was above 100 µM in each case. Moreover, the TGI in [8] was above 100 µM.

Regarding `O=C1CS(=O)(=O)C(c2cccc(Oc3ccccc3)c2)N1c1cccc(Cl)c1Cl` (stereo unspecified), the TGI in assay [3] was found to be 41.6 µM; in assay [5], 49.7 µM; in assay [9] it was 52 µM; in assay [6], 70.6 µM; in assay [7], 66.9 µM; in assay [8], 32.7 µM.
